The test system of data set [1] is A-375. Briefly: cells. Particulars: Homo sapiens, A-375, 72 h.
Data set [2] concerns NCI-H460. Description: cells. Particulars: Homo sapiens, NCI-H460, 72 h.
A short description of data set [3]: cells. Particulars: Homo sapiens, COLO-829, 1 h.
The test system of data set [4] is LoVo. Briefly: cells. The settings on record: Homo sapiens, 72 h.
Data set [5] can be described thus: cells. Particulars: Homo sapiens, SW-620, 1 h.
Data set [6] has as its system NCI-H1299. Description: cells. The settings on record: Homo sapiens, NCI-H1299, 72 h.
In data set [7] the test system is Calu-6. Briefly: cells. Particulars: Homo sapiens, Calu-6, 72 h.
A short description of data set [8]: animal or person. The settings on record: Mus musculus, COLO 205, po, 336 h, read-out: INH.
Data set [9] has as its system COLO 205. Description: cells. The settings on record: Homo sapiens, COLO 205, 72 h.
Data set [10] is described as follows: cells. The settings on record: HT716, 72 h.
Data set [11] relates to HCT-116. Briefly: cells. Particulars: Homo sapiens, HCT-116, 72 h.
Data set [12] concerns SW-620. Briefly: cells. Particulars: Homo sapiens, SW-620, 72 h.
The test system of data set [13] is SK-MEL3. Description: cells. Particulars: Homo sapiens, SK-MEL3, 72 h.
Data set [14] is filed under the species Mus musculus. Particulars: SCID, dose 100.0 mg/kg, route po, time 15.0 day.
Data set [15] deals with WM 266-4. Briefly: cells. Particulars: Homo sapiens, WM 266-4, 72 h.
Data set [16] in a line: cells. Particulars: Homo sapiens, COLO 205, 1 h.
Data set [17] can be described thus: in vivo. Particulars: nude, mouse, plasma, po, 1000 mg/kg.
Data set [18] concerns SK-MEL-2. Briefly: cells. Particulars: Homo sapiens, SK-MEL-2, 72 h.
The subject of data set [19] is COLO-829. Description: cells. The settings on record: Homo sapiens, COLO-829, 72 h.
Data set [20] in a line: cells. Particulars: Homo sapiens, A-375, 1 h.

SMILES strings stand for the structures. Active and inactive are the calls of the source. No cut-off for these calls is given here. A value given as a limit tells only on which side of the number the result lay.

For orientation: GI50 means the concentration at which growth is held to half of that of the control. A high value points to lower sensitivity of the cells. Broadly, the IC50 is the concentration that gives 50% inhibition. A low value points to greater potency in that assay.

For `CCCS(=O)(=O)Nc1ccc(F)c(C(=O)c2c[nH]c3ncc(Cl)cc23)c1F` [PLX-4720], the GI50 was found to be 0.5 µM in [1]; 24 µM in [2]; 29 µM in data set [4]; 41 µM in [6]; 26 µM in data set [7]; 0.31 µM in [9]. The GI50 in [10] stood at 10 µM; in data set [11], 27 µM; in [12], 13 µM; in [13], 27 µM; in [15], 1.5 µM; in data set [18] it was 27 µM. Moreover, in [19], growth was halved (GI50) at 1.7 µM. Further, the 50% inhibitory concentration (IC50) is 0.044 µM in [3], > 40 µM in [5], 0.014 µM in data set [16] and 0.046 µM in [20]. Further, the inhibition in vivo at 20 mg/kg in data set [8] was 43%. Moreover, the inhibition entry in [14] is “Active”. Further, the concentration at 336 h in data set [17] was ≤ 600 µM.
